Experimental data as given in BindingDB's records for doi:10.1021/jm030146j (Merck Research Laboratories, 2003).

The compounds below were run against Integrin alpha-IIb/beta-3 (Homo sapiens, UniProt P08514+P05106) (assay: Inhibition of human alphaIIb-beta3 integrin in platelet aggregation assay).
Integrin alpha-IIb/beta-3, sequence (P05106 27-788 limits assumed): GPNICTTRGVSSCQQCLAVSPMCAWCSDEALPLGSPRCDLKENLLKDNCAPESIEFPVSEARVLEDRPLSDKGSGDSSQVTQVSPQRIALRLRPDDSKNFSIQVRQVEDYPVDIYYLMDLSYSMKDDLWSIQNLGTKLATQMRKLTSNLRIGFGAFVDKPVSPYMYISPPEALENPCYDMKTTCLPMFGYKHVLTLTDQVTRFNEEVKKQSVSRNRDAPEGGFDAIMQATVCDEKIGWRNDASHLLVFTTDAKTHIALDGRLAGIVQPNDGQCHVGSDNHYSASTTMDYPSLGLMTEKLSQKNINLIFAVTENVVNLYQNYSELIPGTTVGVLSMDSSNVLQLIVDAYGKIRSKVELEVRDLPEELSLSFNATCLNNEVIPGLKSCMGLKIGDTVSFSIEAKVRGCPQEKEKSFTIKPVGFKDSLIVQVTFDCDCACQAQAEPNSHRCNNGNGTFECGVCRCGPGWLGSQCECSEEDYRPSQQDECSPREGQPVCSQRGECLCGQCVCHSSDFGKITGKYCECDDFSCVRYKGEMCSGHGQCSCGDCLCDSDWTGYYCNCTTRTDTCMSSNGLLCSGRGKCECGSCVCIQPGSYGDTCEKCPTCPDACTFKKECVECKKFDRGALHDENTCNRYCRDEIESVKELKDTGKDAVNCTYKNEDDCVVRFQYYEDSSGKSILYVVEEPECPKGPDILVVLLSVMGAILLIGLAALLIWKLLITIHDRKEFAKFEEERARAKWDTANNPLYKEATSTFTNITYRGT
Integrin alpha-IIb/beta-3, sequence (P08514 32-887 limits assumed): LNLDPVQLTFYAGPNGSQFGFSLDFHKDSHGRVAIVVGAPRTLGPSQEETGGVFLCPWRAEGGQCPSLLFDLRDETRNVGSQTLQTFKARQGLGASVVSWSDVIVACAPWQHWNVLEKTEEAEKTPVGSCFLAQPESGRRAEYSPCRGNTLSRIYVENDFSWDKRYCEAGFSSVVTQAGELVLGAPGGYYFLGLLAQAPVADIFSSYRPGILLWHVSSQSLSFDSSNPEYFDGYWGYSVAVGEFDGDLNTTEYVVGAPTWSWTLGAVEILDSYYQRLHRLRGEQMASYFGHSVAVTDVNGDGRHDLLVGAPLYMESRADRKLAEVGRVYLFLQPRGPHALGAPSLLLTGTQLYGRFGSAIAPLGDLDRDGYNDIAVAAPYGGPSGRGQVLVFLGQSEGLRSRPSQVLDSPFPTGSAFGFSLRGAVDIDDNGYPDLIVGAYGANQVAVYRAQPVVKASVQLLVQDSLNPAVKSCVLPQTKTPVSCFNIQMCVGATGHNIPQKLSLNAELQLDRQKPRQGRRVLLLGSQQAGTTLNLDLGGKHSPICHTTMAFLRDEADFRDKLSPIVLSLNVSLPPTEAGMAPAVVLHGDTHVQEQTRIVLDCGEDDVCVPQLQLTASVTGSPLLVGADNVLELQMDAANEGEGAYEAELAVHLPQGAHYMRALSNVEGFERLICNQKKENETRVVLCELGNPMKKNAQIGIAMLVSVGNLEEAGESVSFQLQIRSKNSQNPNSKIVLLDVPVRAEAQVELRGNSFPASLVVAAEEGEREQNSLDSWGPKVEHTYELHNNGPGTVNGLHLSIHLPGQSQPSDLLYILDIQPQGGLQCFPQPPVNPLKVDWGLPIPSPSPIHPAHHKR
Integrin alpha-IIb/beta-3, sequence (P08514 891-1039 limits assumed): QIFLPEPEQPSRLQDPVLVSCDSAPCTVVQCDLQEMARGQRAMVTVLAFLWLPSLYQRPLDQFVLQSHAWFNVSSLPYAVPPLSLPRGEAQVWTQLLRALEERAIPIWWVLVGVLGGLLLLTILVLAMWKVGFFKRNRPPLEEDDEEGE

Row | IC50 [nM] | Structure (SMILES)
1 | 157 | CC1(C)[C@@H]2CC[C@@]1(CS(=O)(=O)N[C@@H](CNC(=O)c1ccc(CCc3ccc4c(n3)NCCC4)cc1)C(=O)O)C(=O)C2 [2-((S)-(1R,7S)-7,7-Dimethyl-2-oxo-bicyclo[2.2.1]hept-1-ylmethanesulfonylamino)-3-{4-[2-(5,6,7,8-tetrahydro-[1,8]naphthyridin-2-yl)-ethyl]-benzoylamino}-propionic acid]
2 | 16 | O=C(NC[C@H](NS(=O)(=O)c1ccccc1)C(=O)O)c1ccc(N2CCNCC2)cc1 [2-((S)-Benzenesulfonylamino)-3-(4-piperazin-1-yl-benzoylamino)-propionic acid]
3 | > 10000 | O=C(O)C[C@H](NC(=O)CN1CC[C@H](CCc2ccc3c(n2)NCCC3)C1=O)c1cccnc1 [3-(2-{(S)-2-Oxo-3-[2-(5,6,7,8-tetrahydro-[1,8]naphthyridin-2-yl)-ethyl]-pyrrolidin-1-yl}-acetylamino)-3-(S)-pyridin-3-yl-propionic acid]
4 | > 10000 | O=C(O)CC(NC(=O)CCCCc1ccc2c(n1)NCCC2)c1cncnc1 (stereo not given) [3-Pyrimidin-5-yl-3-(5-5,6,7,8-tetrahydro-[1,8]naphthyridin-2-yl-pentanoylamino)-propionic acid]
5 | > 10000 | CNc1cccc(CCOc2ccc3c(c2)CN(CC(F)(F)F)C(=O)[C@H](CC(=O)O)C3)n1 [[(S)-8-[2-(6-Methylamino-pyridin-2-yl)-ethoxy]-3-oxo-2-(2,2,2-trifluoro-ethyl)-2,3,4,5-tetrahydro-1H-benzo[c]azepin-4-yl]-acetic acid]
